From ChEMBL document CHEMBL5390229, “Inhibiting HCMV pUL89-C Endonuclease with Metal-Binding Compounds” (J Med Chem, 2023)
pEC50, pIC50: −log10 of the molar value.

What was measured:
Cytomegalovirus [1] = assay: Antiviral activity against Human Cytomegalovirus assessed as inhibition of viral growth at 10 uM relative to control; format: functional; details: Human betaherpesvirus 5
Integrase = Integrase (Human immunodeficiency virus 1, UniProt Q76353, Q148K); assay: Inhibition of HIV-1 integrase Q148K mutant
Chain of Integrase (Q76353 entry or part of it Q148K): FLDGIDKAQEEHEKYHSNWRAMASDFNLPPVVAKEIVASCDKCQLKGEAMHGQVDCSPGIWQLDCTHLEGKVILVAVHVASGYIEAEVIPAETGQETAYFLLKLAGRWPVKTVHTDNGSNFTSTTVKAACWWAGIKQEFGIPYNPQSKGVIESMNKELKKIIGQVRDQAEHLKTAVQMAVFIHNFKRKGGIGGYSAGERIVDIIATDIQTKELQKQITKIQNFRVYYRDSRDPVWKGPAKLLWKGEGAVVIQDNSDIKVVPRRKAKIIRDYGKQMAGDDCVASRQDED

[2] = target: T1, Human immunodeficiency virus type 1 reverse transcriptase (Human immunodeficiency virus 1, UniProt Q72547); assay: Inhibition of HIV-1 reverse transcriptase
HFF = assay: Cytotoxicity against human HFF cells assessed as reduction in cell viability; format: functional
[3] = system: Human immunodeficiency virus 1; assay: Antiviral activity against HIV-1 harboring integrase L74M mutant; format: functional, organism-based
Cytomegalovirus [4] = assay: Antiviral activity against Human Cytomegalovirus; details: Human betaherpesvirus 5
[5] = target: T2, Tripartite terminase subunit 3 (Human betaherpesvirus 5, UniProt P16732); assay: Inhibition of Human Cytomegalovirus C-terminal UL89 […] using (5-tcggtgcgggcctcttcgctattacgccagctggcgaaagggggatgtgctgcaaggcga as a substrate preincubated for 15 mins followed by substrate addition and measured after 30 mins by plate reader endonuclease assay
T2 sequence (P16732 whole entry): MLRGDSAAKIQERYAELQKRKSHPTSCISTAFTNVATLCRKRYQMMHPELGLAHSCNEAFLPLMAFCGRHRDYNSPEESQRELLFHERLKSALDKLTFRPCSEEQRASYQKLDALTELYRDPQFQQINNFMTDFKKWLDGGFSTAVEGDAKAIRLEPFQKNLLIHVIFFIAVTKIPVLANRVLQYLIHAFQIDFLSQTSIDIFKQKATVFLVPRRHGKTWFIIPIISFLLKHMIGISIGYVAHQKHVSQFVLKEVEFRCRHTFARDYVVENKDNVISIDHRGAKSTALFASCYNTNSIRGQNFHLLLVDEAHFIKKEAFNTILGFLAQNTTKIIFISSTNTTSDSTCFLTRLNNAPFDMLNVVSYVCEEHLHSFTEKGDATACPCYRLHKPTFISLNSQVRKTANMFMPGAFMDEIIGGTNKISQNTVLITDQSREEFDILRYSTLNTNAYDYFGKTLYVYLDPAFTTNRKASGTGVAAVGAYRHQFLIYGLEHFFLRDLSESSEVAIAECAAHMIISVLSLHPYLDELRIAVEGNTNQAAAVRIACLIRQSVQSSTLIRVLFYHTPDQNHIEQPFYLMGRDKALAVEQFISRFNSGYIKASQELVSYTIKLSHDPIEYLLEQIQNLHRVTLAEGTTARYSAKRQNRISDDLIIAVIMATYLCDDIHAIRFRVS

[6] = Permeability of the compound at pH 7.4 by PAMPA method; format: ADME; details: for Papp: read-out: permeability
[7] = target: T2, Tripartite terminase subunit 3; assay: Inhibition of human Cytomegalovirus C-terminal UL89
[8] = target: Hepatitis C virus NS5B RNA-dependent RNA polymerase (Hepatitis C virus, UniProt Q8JXU8); assay: Inhibition of Hepatitis C virus NS5B polymerase; parameters: species or system Hepacivirus hominis
Chain of Hepatitis C virus NS5B RNA-dependent RNA polymerase (Q8JXU8 whole entry): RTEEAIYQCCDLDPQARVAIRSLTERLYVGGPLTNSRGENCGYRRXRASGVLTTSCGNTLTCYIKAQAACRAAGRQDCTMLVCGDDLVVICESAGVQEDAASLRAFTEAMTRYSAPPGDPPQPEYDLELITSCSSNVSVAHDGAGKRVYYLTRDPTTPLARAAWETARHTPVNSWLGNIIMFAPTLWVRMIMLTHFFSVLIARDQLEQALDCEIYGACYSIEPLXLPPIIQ

[9] = target: T3, Tripartite terminase subunit 3 (Human betaherpesvirus 5) (UniProt P16732); assay: Inhibition of Human Cytomegalovirus C-terminal UL89 […] using (5-tcggtgcgggcctcttcgctattacgccagctggcgaaagggggatgtgctgcaaggcga as a substrate preincubated for 15 mins followed by substrate addition at 20 uM and measured after 30 mins by plate reader endonuclease assay relative to control; details: time 45.0 min
T3 sequence (whole entry): T2 sequence (P16732 whole entry)

[10] = Selectivity index, ratio of CC50 for human HFF cells to EC50 for Human cytomegalovirus; format: toxicity; details: read-out: Ratio CC50/EC50
[11] = target: Human immunodeficiency virus type 1 integrase (Human immunodeficiency virus 1, UniProt Q7ZJM1, R263K); assay: Inhibition of HIV-1 integrase DTG-resistant R263K mutant
Chain of Human immunodeficiency virus type 1 integrase (Human immunodeficiency virus 1, UniProt Q7ZJM1, R263K) (Q7ZJM1 entry or part of it R263K): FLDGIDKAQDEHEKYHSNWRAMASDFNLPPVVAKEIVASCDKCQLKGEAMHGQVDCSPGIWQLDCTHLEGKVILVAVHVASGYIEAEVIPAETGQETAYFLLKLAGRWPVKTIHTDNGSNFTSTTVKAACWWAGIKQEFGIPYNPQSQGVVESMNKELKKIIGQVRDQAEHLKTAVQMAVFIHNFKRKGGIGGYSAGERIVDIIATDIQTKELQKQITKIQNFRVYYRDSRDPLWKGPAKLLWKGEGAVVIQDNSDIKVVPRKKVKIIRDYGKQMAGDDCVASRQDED

[12] = Cytotoxicity against human HFF-1 cells assessed as induction of cell death incubated for 24 hrs by MTT assay; format: toxicity, cell-based
[13] = system: Human immunodeficiency virus 1; assay: Antiviral activity against HIV-1 assessed as viral growth inhibition; format: functional, organism-based
[14] = target: T1, Human immunodeficiency virus type 1 reverse transcriptase; assay: Inhibition of HIV-1 reverse transcriptase associated RNA-dependent DNA polymerase
[15] = Cytotoxicity against human HFF cells assessed as reduction in cell viability incubated for 72 hrs by MTT assay; format: toxicity, cell-based
[16] = target: T1, Human immunodeficiency virus type 1 reverse transcriptase; assay: Inhibition of HIV-1 RNase H polymerase activity
[17] = target: Human immunodeficiency virus type 1 integrase (Human immunodeficiency virus 1, UniProt Q7ZJM1, G140S/Q148K)
Chain of Human immunodeficiency virus type 1 integrase (Human immunodeficiency virus 1, UniProt Q7ZJM1, G140S/Q148K) (Q7ZJM1 entry or part of it G140S/Q148K): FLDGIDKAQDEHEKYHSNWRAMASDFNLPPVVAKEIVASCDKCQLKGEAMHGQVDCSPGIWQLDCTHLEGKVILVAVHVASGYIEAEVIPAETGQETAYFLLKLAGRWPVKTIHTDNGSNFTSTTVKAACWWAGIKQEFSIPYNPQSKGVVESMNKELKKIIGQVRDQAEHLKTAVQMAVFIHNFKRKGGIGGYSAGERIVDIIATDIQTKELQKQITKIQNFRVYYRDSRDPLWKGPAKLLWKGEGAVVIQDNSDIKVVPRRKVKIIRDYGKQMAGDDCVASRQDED

pEC50 (Cytomegalovirus [4])	pIC50 [5]	Compound	inhibition at 10 µM (Cytomegalovirus [1]) [%]	other results
–	–	CCOC(=O)c1cn(Cc2ccc(F)cc2)cc(O)c1=O	40	–
–	–	CC(C)c1cn(COCc2ccccc2)c(=O)[nH]c1=O	–	pIC50 (Integrase): < 3.48; pIC50 [2]: 7.40; CC50 (HFF): > 20000 nM; pEC50 [3]: 7.89
4.82	4.85	COc1cccc(OC)c1-c1cccc(Nc2cc(=O)n(O)c(=O)[nH]2)c1	–	–
–	5.74	Cc1ccc(CNC(=O)c2nc(Cl)c3cccnc3c2O)cc1	–	–
–	< 4.60	O=C(O)c1cn(-c2ccccc2)cc(O)c1=O	8	–
< 4.70	5.54	O=c1cc(Nc2ccc(-c3cccc(O)c3)cc2)[nH]c(=O)n1O	–	–
5.00	–	O=C(O)c1cn(Cc2ccc(F)cc2)cc(O)c1=O	39	–
< 4.70	< 4.70	Cn1c(Nc2ccc(-c3ccccc3)cc2)cc(=O)n(O)c1=O	–	–
–	–	O=C(O)C(=O)CC(=O)c1ccc(N2CCCCC2)cc1	–	pIC50 [7]: 5.35
–	–	O=C(O)c1nc(-c2cccs2)nc(O)c1O	–	pIC50 [8]: 5.59
–	–	CN(Cc1ccc(F)cc1)C(=O)CC(=O)C(=O)O	–	pIC50 [7]: 4.30
< 4.70	5.96	O=c1cc(Nc2ccc(-c3ccc(O)cc3)cc2)[nH]c(=O)n1O	–	–
–	< 4.60	CCn1cc(O)c(=O)c(C(=O)O)c1	14	–
5.92	5.66	Cc1ccc(-c2ccc(Nc3cc(=O)n(O)c(=O)n3C)cc2)cc1	–	–
–	4.85	O=C(O)c1c[nH]cc(O)c1=O	13	–
–	–	O=c1c2cc(Cc3ccccc3)ccc2oc2ccc(O)c(O)c12	–	pIC50 [11]: 6.22
–	–	O=C(O)C(=O)CC(=O)c1cccc(Cc2ccccc2)c1	–	pIC50 [11]: 8.00
< 4.70	5.92	COc1cccc(-c2ccc(Nc3cc(=O)n(O)c(=O)[nH]3)cc2)c1	–	–

pEC50 (Cytomegalovirus [4])	pIC50 [5]	Compound	inhibition at 10 µM (Cytomegalovirus [1]) [%]	other results
< 4.70	5.03	O=c1cc(Nc2ccc(-c3ccc(Cl)cc3)cc2)[nH]c(=O)n1O	–	–
5.40	5.22	O=C(O)c1cn(Cc2ccc(F)c(Cl)c2)cc(O)c1=O	53	selectivity ratio [10]: > 116; CC50 (HFF): > 200000 nM
–	< 4.70	COc1ccc(-c2ccc(Nc3cc(=O)n(O)c(=O)n3C)cc2)cc1	–	–
< 4.70	< 4.70	O=c1cc(Nc2cccc(-c3ccc(Cl)cc3)c2)[nH]c(=O)n1O	–	–
5.21	6.13	Cn1c(Nc2ccc(-c3cccc(C#N)c3)cc2)cc(=O)n(O)c1=O	–	–
–	< 4.60	O=C(O)c1cn(Cc2ccccc2)cc(O)c1=O	38	–
–	< 4.60	O=C(O)c1cn(C2CC2)cc(O)c1=O	2	–
–	< 4.70	Cn1c(Nc2ccc(-c3ccc(C(F)(F)F)cc3)cc2)cc(=O)n(O)c1=O	–	–
< 4.70	4.85	COc1ccc(-c2cccc(Nc3cc(=O)n(O)c(=O)[nH]3)c2)cc1	–	–
–	–	CC(C)c1cn(COCc2ccccc2)c(=O)n(O)c1=O	–	pEC50 [13]: 8.10; pIC50 [14]: 5.27; CC50 at 72 h [15]: > 20000 nM; pIC50 [16]: 5.60
–	–	O=C(NCc1ccc(F)cc1)c1ncc2cccnc2c1O	–	pIC50 [11]: 7.48
–	< 4.30	NC(=O)c1cn(Cc2ccc(F)cc2)cc(O)c1=O	50	–
–	–	O=C(NCc1ccccc1)c1nc(-c2cccs2)nc(O)c1O	–	pIC50 [17]: 5.59
–	5.55	Cc1ccc(CNC(=O)c2nc(-c3ccccc3)c3cccnc3c2O)cc1	–	–
–	–	CCOC(=O)c1cc(=O)c(O)c(C(=O)O)o1	–	pIC50 [8]: 5.65
–	–	CCc1ccccc1Sc1cc(=O)n(O)c(=O)n1C	–	CC50 at 72 h [15]: 20000 nM
–	–	O=C(c1cc(Cc2ccccc2)cc(CN2CCCS2(=O)=O)c1)c1ncc2cccnc2c1O	–	pIC50 [11]: 8.00

Compound	pEC50 (Cytomegalovirus [4])	pIC50 [5]	inhibition at 10 µM (Cytomegalovirus [1]) [%]	other results
O=c1[nH]c2c3c(sc2c(=O)n1O)CCC3	6.66	6.66	-32	Papp [6]: 0.3 ×10⁻⁶ cm/s
O=c1[nH]c2sc3c(c2c(=O)n1O)CCNC3	–	6.17	26	Papp [6]: 0.1 ×10⁻⁶ cm/s
O=c1[nH]c2sc3c(c2c(=O)n1O)CCC3	–	6.32	19	Papp [6]: 0.4 ×10⁻⁶ cm/s
O=c1[nH]c2sccc2c(=O)n1O	–	6.40	-0.95	Papp [6]: 0.1 ×10⁻⁶ cm/s
O=C(NCc1ccc(F)cc1F)c1cn(Cc2ccc(F)cc2)ccc1=O	5.18	–	–	inhibition [9]: 5%
O=c1[nH]c2cc(-c3ccccc3)ccc2c(=O)n1O	4.89	5.19	91	Papp [6]: 2 ×10⁻⁶ cm/s
COc1cn(Cc2ccc(F)cc2)cc(C(=O)NCc2ccc(F)cc2F)c1=O	< 4.30	–	–	inhibition [9]: 6%
O=C(NCCc1ccc(F)cc1F)c1cn(Cc2ccc(F)cc2)cc(O)c1=O	6.40	–	–	selectivity ratio [10]: > 40; inhibition [9]: 10%; CC50 (HFF): > 50000 nM
O=c1[nH]c2sc(-c3ccc(Cl)cc3)cc2c(=O)n1O	5.12	6.52	33	Papp [6]: 0.5 ×10⁻⁶ cm/s
O=C1c2ccccc2C(c2ccccc2F)C(=O)N1O (centres undefined)	5.21	5.85	68	Papp [6]: 3 ×10⁻⁶ cm/s
O=c1[nH]c2ccsc2c(=O)n1O	–	7.00	-11	Papp [6]: 0.1 ×10⁻⁶ cm/s
O=c1[nH]c2c3c(sc2c(=O)n1O)CCCC3	–	6.03	-4.5	Papp [6]: 1 ×10⁻⁶ cm/s
O=c1[nH]c2sc3c(c2c(=O)n1O)CCCC3	–	6.10	-3	permeability [6]: 1.1 10^-6 cm/s
O=c1[nH]c2cc(-c3ccccc3)sc2c(=O)n1O	4.89	6.22	59	permeability [6]: 1.4 10^-6 cm/s; CC50 at 24 h [12]: > 50000 nM
O=c1[nH]c2sc(-c3ccccc3)cc2c(=O)n1O	–	5.80	2.7	Papp [6]: 0.5 ×10⁻⁶ cm/s
O=C(NCc1ccc(F)cc1F)c1cn(Cc2ccc(F)cc2)cc(O)c1=O	6.05	–	–	inhibition [9]: 14%
O=c1[nH]c2sc3c(c2c(=O)n1O)CCN(Cc1ccccc1)C3	4.82	5.96	59	Papp [6]: 0.2 ×10⁻⁶ cm/s; CC50 at 24 h [12]: > 50000 nM
